These results are taken from patent US9051310B2, “Nicotinamide derivative or salt thereof” (FUJIFILM Corporation, priority 2011, dated 2015).

Where a name gives a salt, the structure may show the parent alone.

Test [1] concerns the target T1, glutathione S-transferase (GST)-linked full-length human Syk protein (Homo sapiens, UniProt P43405).
T1 construct: glutathione S-transferase (GST)-linked full-length human Syk protein; purchased Carna Biosciences; host or cells: Baculovirus expression system
Briefly: Syk enzyme assay. The following applies: 0.83 nM Syk, time-resolved fluorescence; read-out: IC50 of Syk-inhibitory activity. It is filed as biochemical. Put shortly: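 Phosphotyrosine on a biotin-peptide substrate (0.5 μM) was read by time-resolved fluorescence at 615 and 665 nm with Eu-anti-pTyr antibody and APC-streptavidin after 1 h EDTA stop.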

The test system of test [2] is THP-1 cells (TNFα secretion on human IgG-coated plate). Nature of the test: TNFα generation assay. It is filed as cell-based. The settings on record: IFN-γ differentiated THP-1 cells, 7 hours, AlphaLISA, read-out: IC50 of TNFα generation inhibitory activity. The procedure, abridged:
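Secreted TNFα was measured by AlphaLISA after 7 h of culture on human IgG-coated wells (coating at 10 μg/ml), with 5×10^4 cells/well. Before plating, the cells had been treated with compound for 30 min at room temperature. The cells were macrophage-like THP-1, produced by a 2-day exposure to 10 ng/ml IFN-γ.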

In test [3] the test system is THP-1 cells (phagocytosis of opsonized Escherichia coli). Briefly: Antibody-dependent phagocytosis assay. It counts as cell-based. The following applies: Homo sapiens; IFNγ differentiated THP-1 cells, opsonized pHrodo Escherichia coli, 3 hours; read-out: IC50 upon phagocytosis inhibition. Put shortly: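 Read-out was imaging-based quantification of pHrodo-labeled, antibody-opsonized E. coli taken up by Calcein AM-stained viable cells after 3 h at 37° C. The cells were IFNγ-differentiated THP-1 macrophages (10 ng/ml, 2 days), preincubated with compound for 30 min at room temperature.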

The test system of test [4] is rat type II collagen arthritis. Nature of the test: Rat type II collagen-induced arthritis. It is filed as in vivo. The following applies: female Lewis rats, oral administration 10 mg/kg/day, Day 7 to Day 20 once daily, Student's t-test. How it is done: The compounds were tested to examine effects upon rat type II collagen arthritis. Equivalent volumes of 0.05 mol/L acetic acid in which a 3 mg/mL bovine type II collagen solution (Collagen Gijutsu Kenshu-Kai) had been dissolved and Freund's incomplete adjuvant (Wako Pure Chemical Industries, Ltd.) were mixed to prepare an emulsion. A portion of the emulsion (0.5 ml) was intradermally injected into the tail bases of 6- to 8-week-old female Lewis rats (Charles River Laboratories Japan, Inc.) (Day 0). Each rat was subjected to the same treatment on Day 7 after the initial inoculation so as to induce arthritis. Each test compound was orally administered from Day 7 to Day 20 once daily. At a given time during the period from Day 7 to Day 21, the rat hindlimb volume was determined using a plethysmometer (UGO BASILE), and the result was designated as an arthritis index.

For test [5], the system named is mouse thrombocytopenia induced by anti-mouse CD41 antibody. Nature of the test: Mouse thrombocytopenia model. It counts as in vivo. The settings on record: Platelet, female BALB/c mice, 50 mg/kg 1 hour before anti-CD41 antibody, blood sampling 4 hours after antibody, read-out: improvement of platelet count compared with the control group. How it is done: Test compounds were tested to examine effects upon mouse thrombocytopenia. Each test compound (50 mg/kg) was administered to 5- to 7-week-old female BALB/c mice (Charles River Laboratories Japan, Inc.). One hour thereafter, an anti-mouse CD41 ([…]) antibody (SCB) (1 μg (200 μl)) was intravenously administered to each mouse so as to induce thrombocytopenia. Four hours after administration of the anti-CD41 antibody, blood sampling from the postcava was performed. The platelet count was determined using an automated hematology analyzer.

As to `CN(C)c1nn(C)c2c(F)cc(Nc3nc(N[C@@H]4CCCC[C@@H]4N)c(F)cc3C(N)=O)cc12` [Example 2-184, 6-(((1R,2S)-2-aminocyclohexyl)amino)-2-((3-(dimethylamino)-7-fluoro-1-methyl-1H-indazole-5-yl)amino)-5-fluoronicotinamide hydrochloride], the IC50 in test [1] was less than 10 nM; in test [2], 65 to 130 nM; in test [3], less than 1000 nM. Besides, in test [4], the “hindlimb swelling on Day 20 compared with the control group” value is “significantly inhibited hindlimb swelling”. In addition, in test [5], the change in vivo at 50 mg/kg was not below 50%.
`C[C@H](N)[C@H](Nc1nc(Nc2cc(F)c3c(c2)c(N(C)C)nn3C)c(C(N)=O)cc1F)C1CC1` [Example 2-188, 6-(((1R,2S)-2-amino-1-cyclopropylpropyl)amino)-2-((3-(dimethylamino)-7-fluoro-1-methyl-1H-indazol-5-yl)amino)-5-fluoronicotinamide]: the IC50 in test [1] was less than 10 nM; in test [2] it was less than 65 nM; in test [3], less than 1000 nM. Also, in test [5], the change in vivo at 50 mg/kg was not below 50%.
The corresponding values for `CCC[C@@H](Nc1nc(Nc2ccc3c(c2)c(N(C)C)nn3C)c(C(N)=O)cc1F)[C@H](C)N` [Example 2-87, 6-(((2S,3R)-2-aminohexan-3-yl)amino)-2-((3-(dimethylamino)-1-methyl-1H-indazol-5-yl)amino)-5-fluoronicotinamide] are less than 10 nM, 130 to 200 nM, 1000 to 3000 nM and not below 50%.
In the same order, the values of `Cc1cc(Nc2nc(N[C@H](CC(C)C)[C@H](C)N)c(F)cc2C(N)=O)cnc1C` [Example 2-18, 6-(((2S,3R)-2-amino-5-methylhexan-3-yl)amino)-2-((5,6-dimethylpyridin-3-yl)amino)-5-fluoronicotinamide] are less than 10 nM, 65 to 130 nM, less than 1000 nM and not below 50%.
With `COC[C@@H](Nc1nc(Nc2cc(F)c3c(c2)c(N(C)C)nn3C)c(C(N)=O)cc1F)[C@H](C)N` [Example 2-193, 6-(((2S,3S)-3-amino-1-methoxybutan-2-yl)amino)-2-((3-(dimethylamino)-7-fluoro-1-methyl-1H-indazol-5-yl)amino)-5-fluoronicotinamide], the IC50 in test [1] was in the range of 10 to 50 nM; in test [2], 130 to 200 nM; in test [3] it was 1000 to 3000 nM. In addition, in test [5], the change in vivo at 50 mg/kg is not below 50%.
In the same order, the values of `COCCn1nc(OC)c2cc(Nc3nc(N[C@@H]4CCCC[C@@H]4N)c(F)cc3C(N)=O)ccc21` [Example 2-123, 6-(((1R,2S)-2-aminocyclohexyl)amino)-5-fluoro-2-((3-methoxy-1-(2-methoxyethyl)-1H-indazol-5-yl)amino)nicotinamide] are less than 10 nM, 65 to 130 nM, less than 1000 nM and not below 50%.
The corresponding values for `CC[C@H](N)[C@@H](C)Nc1nc(Nc2ccc3c(c2)c(N(C)C)nn3C)c(C(N)=O)cc1F` [Example 2-91, 6-(((2R,3S)-3-aminopentan-2-yl)amino)-2-((3-(dimethylamino)-1-methyl-1H-indazol-5-yl)amino)-5-fluoronicotinamide] are 10 to 50 nM, 130 to 200 nM, 1000 to 3000 nM and not below 50%.
As to `COCCn1nc(OC(F)F)c2cc(Nc3nc(N[C@@H]4CCCC[C@@H]4N)c(F)cc3C(N)=O)ccc21` [Example 2-174, 6-(((1R,2S)-2-aminocyclohexyl)amino)-2-((3-(difluoromethoxy)-1-(2-methoxyethyl)-1H-indazol-5-yl)amino)-5-fluoronicotinamide], the results for the IC50 in test [1], in test [2] and in test [3] were less than 10 nM, 130 to 200 nM and less than 1000 nM, respectively. For the same compound, the change in vivo at 50 mg/kg in test [5] is not below 50%.
In the same order, the values of `COC[C@@H](Nc1nc(Nc2cc(OC)cc(OC)c2)c(C(N)=O)cc1F)[C@H](C)N` [Example 2-267, 6-(((2S,3S)-3-amino-1-methoxybutan-2-yl)amino)-2-((3,5-dimethoxyphenyl)amino)-5-fluoronicotinamide] are less than 10 nM, 65 to 130 nM, 1000 to 3000 nM and not below 50%.
Consider `Cn1nc(OC(F)F)c2cc(Nc3nc(N[C@@H]4CCOC[C@@H]4N)c(F)cc3C(N)=O)ccc21` [Example 2-348, 6-(((3R,4R)-3-aminotetrahydro-2H-pyran-4-yl)amino)-2-((3-(difluoromethoxy)-1-methyl-1H-indazol-5-yl)amino)-5-fluoronicotinamide], for which the IC50 is less than 10 nM in test [1], 130 to 200 nM in test [2] and less than 1000 nM in test [3]. For the same compound, in test [5], the change in vivo at 50 mg/kg was not below 50%.
As to `COc1cc(Nc2nc(N[C@H](C3CCC3)[C@H](C)N)c(F)cc2C(N)=O)cc(OC)c1` [Example 2-28], the IC50 in test [1] is less than 10 nM; in test [2], 65 to 130 nM; in test [3], less than 1000 nM. Also, in test [5], the change in vivo at 50 mg/kg is not below 50%.
In the same order, the values of `Cc1ncc(Nc2nc(N[C@@H]3CCCC[C@@H]3N)c(F)cc2C(N)=O)cc1F` [Example 2-142, 6-(((1R,2S)-2-aminocyclohexyl)amino)-5-fluoro-2-((5-fluoro-6-methylpyridin-3-yl)amino)nicotinamide] are 10 to 50 nM, 65 to 130 nM, less than 1000 nM and not below 50%.
The corresponding values for `COCCn1ncc2cc(Nc3nc(N[C@H](C4CC4)[C@H](C)N)c(F)cc3C(N)=O)ccc21` [Example 2-265, 6-(((1R,2S)-2-amino-1-cyclopropylpropyl)amino)-5-fluoro-2-((1-(2-methoxyethyl)-1H-indazol-5-yl)amino)nicotinamide] are less than 10 nM, 65 to 130 nM, less than 1000 nM and not below 50%.
The corresponding values for `CCn1ncc2c(Nc3nc(N[C@@H]4CCOC[C@@H]4N)c(F)cc3C(N)=O)cccc21` [Example 2-330, 6-(((3R,4R)-3-aminotetrahydro-2H-pyran-4-yl)-amino)-2-((1-ethyl-1H-indazol-4-yl)amino)-5-fluoronicotinamide] are less than 10 nM, 65 to 130 nM, less than 1000 nM and not below 50%.
Consider `COc1ccc(Nc2nc(N[C@H](C3CC3)[C@H](C)N)c(F)cc2C(N)=O)cc1OC` [Example 2-48, 6-(((1R,2S)-2-amino-1-cyclopropylpropyl)amino)-2-((3,4-dimethoxyphenyl)amino)-5-fluoronicotinamide], for which the IC50 in test [1] is less than 10 nM; in test [2] it was 65 to 130 nM; in test [3] it was less than 1000 nM. For the same compound, the change in vivo at 50 mg/kg in test [5] is not below 50%.
Take `CC[C@H](N)[C@@H](C)Nc1nc(Nc2cccc3c2cnn3CC)c(C(N)=O)cc1F` [Example 2-100, 6-(((2R,3S)-3-aminopentan-2-yl)amino)-2-((1-ethyl-1H-indazol-4-yl)amino)-5-fluoronicotinamide]: the IC50 is less than 10 nM in test [1], 130 to 200 nM in test [2] and 1000 to 3000 nM in test [3]. The change in vivo at 50 mg/kg in test [5] was not below 50%.
In the same order, the values of `C[C@H](N)[C@H](Nc1nc(Nc2cnc(N3CCOCC3)c(F)c2)c(C(N)=O)cc1F)C1CCC1` [Example 2-77, 6-(((1R,2S)-2-amino-1-cyclobutylpropyl)amino)-5-fluoro-2-((5-fluoro-6-morpholinopyridin-3-yl)amino)nicotinamide] are 10 to 50 nM, 130 to 200 nM, less than 1000 nM and not below 50%.
In the same order, the values of `CN(C)c1nn(C)c2c(F)cc(Nc3nc(N[C@@H]4CCOC[C@@H]4N)c(F)cc3C(N)=O)cc12` [Example 2-213, 6-(((3R,4R)-3-aminotetrahydro-2H-pyran-4-yl)amino)-2-((3-(dimethylamino)-7-fluoro-1-methyl-1H-indazol-5-yl)amino)-5-fluoronicotinamide] are less than 10 nM, 65 to 130 nM, less than 1000 nM and not below 50%.
